GI50 and TGI data for nine compounds are collected here from PubChem BioAssay (NCI).

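Growth conditions: 96-well plates. Treatment: test compound, 48 hours, 5 concentrations. Analysis: linear interpolation between bracketing concentrations; unreached endpoints set to highest concentration. GI50 marks 50% less growth. At the TGI there is no net growth.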

Some test systems named below: MALME-3M melanoma; U251 CNS; SF-268 CNS; SW-620 colon; HT29 colon; OVCAR-8 ovarian; HOP-62 NSCLC; IGROV1 ovarian; HCT-116 colon; LOX IMVI melanoma.
What all share (assay): DTP human tumour cell line panel, 48 h

As for `CC(C)C(=O)c1c(C(F)(F)F)n([O-])c2cc(F)c(F)cc2[n+]1=O`, the GI50 (as a rule, the concentration that inhibits growth by half) in the assay on MALME-3M melanoma is 693 nM; in the assay with U251 CNS it was 200 nM; in the assay on SF-268 CNS it was 400 nM; with SW-620 colon, 130 nM; in the assay on HT29 colon, 168 nM; in the assay with OVCAR-8 ovarian, 262 nM. The GI50 with HOP-62 NSCLC was 98.5 nM; in the assay with IGROV1 ovarian it was 161 nM. Also, the TGI (commonly the concentration at which net growth stops) is 2.21 µM with MALME-3M melanoma; 0.43 µM in the assay with U251 CNS; 1.05 µM in the assay with SF-268 CNS; 0.277 µM in the assay with SW-620 colon; 0.547 µM in the assay with HT29 colon; 0.85 µM in the assay with OVCAR-8 ovarian. Besides, the TGI was found to be 0.602 µM in the assay on HOP-62 NSCLC and 53.7 µM in the assay on IGROV1 ovarian.
On to `NC(=O)c1cccc(OCC(O)CO)c1` (stereo not drawn), for which the TGI in the assay with U251 CNS is over 100 µM; in the assay with SF-268 CNS it was over 100 µM; in the assay with SW-620 colon, over 100 µM; in the assay on HT29 colon, over 100 µM; with HCT-116 colon it was over 100000 nM; in the assay on OVCAR-8 ovarian it was over 100 µM. Moreover, the TGI in the assay with HOP-62 NSCLC and in the assay on IGROV1 ovarian was over 100 µM each time.
As for `Nc1ccc(COC(O)CN2CCCCC2)cc1[N+](=O)[O-]` (stereo not drawn), the TGI in the assay on MALME-3M melanoma was over 100 µM; in the assay with U251 CNS, over 100 µM; in the assay on SF-268 CNS, over 100 µM; in the assay on SW-620 colon it was over 100 µM; in the assay with HT29 colon, over 100 µM; in the assay on HCT-116 colon it was over 100000 nM. In addition, the TGI with OVCAR-8 ovarian and in the assay on IGROV1 ovarian was over 100 µM throughout.
In the case of `COC(=O)/C(C#N)=C(\N)C(Cl)(Cl)Cl`, the TGI with U251 CNS came to 31.7 µM; with SF-268 CNS, 14.7 µM; in the assay with SW-620 colon, 1.84 µM; in the assay on HCT-116 colon, 2250 nM; in the assay on OVCAR-8 ovarian, 4.68 µM; with HOP-62 NSCLC, 39 µM. In addition, the TGI in the assay with LOX IMVI melanoma is 10.8 µM.
Take `COc1cc2c(cc1OC)C1Cc3ccc(OC)c(OC)c3C[N+]1([O-])CC2` (stereo not drawn): the TGI in the assay with MALME-3M melanoma was over 100 µM; in the assay with U251 CNS, over 100 µM; with SF-268 CNS, over 100 µM; in the assay with SW-620 colon, over 100 µM; in the assay on HT29 colon, over 100 µM; in the assay with HCT-116 colon it was over 100000 nM. The TGI in the assay with OVCAR-8 ovarian and in the assay with HOP-62 NSCLC was over 100 µM throughout.
As for `CCCCCCCC(=O)SCC/C=C/[C@@H]1CC(=O)NCc2nc(cs2)C2=N[C@@](C)(CS2)C(=O)N[C@@H](C(C)C)C(=O)N1`, the GI50 was 31.8 nM with U251 CNS; 76.9 nM in the assay on SF-268 CNS; 64.5 nM with SW-620 colon; under 10 nM in the assay on HT29 colon; under 10 nM with HCT-116 colon; 23.4 nM with OVCAR-8 ovarian. Moreover, the GI50 with HOP-62 NSCLC was 32.1 nM; in the assay with LOX IMVI melanoma it was 19.8 nM; in the assay on IGROV1 ovarian, 15.3 nM. Besides, the TGI in the assay with U251 CNS is 0.364 µM; in the assay on SF-268 CNS, over 50.5 µM; in the assay with SW-620 colon, 5.57 µM; with HT29 colon it was 0.0499 µM; in the assay on HCT-116 colon, 35 nM; in the assay on OVCAR-8 ovarian, 16.7 µM. For the same compound, the TGI in the assay with HOP-62 NSCLC came out at 13.1 µM; in the assay on LOX IMVI melanoma, 0.0468 µM; with IGROV1 ovarian, 1.8 µM.
Consider `O=C1C=Cc2c1ccc1ccccc21`, for which the GI50 in the assay with U251 CNS was 24500 nM; in the assay on SF-268 CNS it was 28300 nM; with SW-620 colon, 44300 nM; with HT29 colon, 58800 nM; with HCT-116 colon, 27000 nM; with OVCAR-8 ovarian, 25300 nM. The GI50 in the assay on HOP-62 NSCLC was 14300 nM; in the assay with LOX IMVI melanoma, 22000 nM; with IGROV1 ovarian it was 25500 nM. The TGI with U251 CNS was over 100 µM; in the assay with SF-268 CNS it was over 100 µM; in the assay on SW-620 colon it was over 100 µM; in the assay with HT29 colon, over 100 µM; in the assay on HCT-116 colon, over 100000 nM; with OVCAR-8 ovarian it was 73.6 µM. Besides, the TGI in the assay on HOP-62 NSCLC was 50 µM; in the assay on LOX IMVI melanoma, 61.8 µM; with IGROV1 ovarian, over 100 µM.
For the compound `C=CCN1/C(=C2\SC(=S)N(c3ccc(C)cc3)C2=O)Sc2c1ncn(C)c2=O`, the TGI in the assay with U251 CNS was over 100 µM; in the assay on SF-268 CNS, over 100 µM; in the assay with SW-620 colon it was over 100 µM; with HT29 colon, over 100 µM; with HCT-116 colon, over 100000 nM; in the assay with OVCAR-8 ovarian, over 100 µM. The TGI with HOP-62 NSCLC, with LOX IMVI melanoma and in the assay on IGROV1 ovarian was over 100 µM each time.
Regarding `COc1cc(C(=O)O[C@H](C(=O)NCCN(C)CCNC(=O)[C@@H](OC(=O)c2cc(OC)cc3c(C)cccc23)[C@]2(C)CO2)[C@]2(C)CO2)c2cccc(C)c2c1`, the GI50 is under 10 nM with U251 CNS; under 10 nM with SF-268 CNS; under 10 nM with SW-620 colon; under 18.4 nM in the assay with HT29 colon; 75.1 nM in the assay on HCT-116 colon; under 10 nM in the assay on OVCAR-8 ovarian. Also, the GI50 in the assay on HOP-62 NSCLC is 893 nM; with LOX IMVI melanoma it was under 10 nM; with IGROV1 ovarian it was under 42.5 nM. Besides, the TGI is 0.0139 µM in the assay with U251 CNS; 0.929 µM in the assay on SF-268 CNS; 0.152 µM in the assay on SW-620 colon; over 27 µM with HT29 colon; 2930 nM in the assay on HCT-116 colon; under 0.0324 µM in the assay with OVCAR-8 ovarian. Moreover, in the assay on HOP-62 NSCLC, the TGI was determined as 7.85 µM.
